# According to US20240148671A1, “METHODS FOR IMPROVING POULTRY HEALTH” (CORNELL UNIVERSITY, priority 2021, published 2024):
# Test system: cecal microbiome
# Experiment: 16S rRNA gene sequencing of the cecal microbiota
# Assay type: in vivo, Gallus gallus
# Conditions: cecal content at hatch
# Protocol: The pure resveratrol and pterostilbene were individually diluted in 18 MΩ H2O. The intra-amniotic administration followed the methodology previously described. On the 17th day of embryonic development, the eggs with viable embryos (n=60) were randomly allocated into 6 groups (n=10) with a similar weight frequency distribution. For the intra-amniotic treatment, 1 mL of solution per egg was injected into the amniotic fluid (via candling) with the aid of a 21-gauge needle. After the procedure, the injection sites were sealed with cellophane tape, and the eggs were distributed into six groups: (1) no injection; (2) 18 MΩ H2O; (3) 5% inulin; (4) 5% resveratrol; (5) 5% pterostilbene; and (6) synergistic: 4.75% resveratrol and 0.25% pterostilbene. […] The eggs were equally distributed in each incubator location to reduce possible allocation bias. Upon hatching (21 days), the hatchlings were euthanized by CO2 exposure, and the blood, liver, heart, pectoral muscle, small intestine and cecum were obtained.
# As was formerly described, cecal samples were used to extract microbial genomic DNA (PowerSoil DNA isolation kit, MoBio Laboratories Ltd., Carlsbad, CA, USA). […] The PCR products were purified (Beckman Coulter, Atlanta, GA, USA) and quantified (Quant-iT PicoGreen dsDNA quantitation kit, Invitrogen, Carlsbad, CA, USA). […]
# The 16S rRNA gene sequence analysis was performed using QIIME2 as previously described. The sequence reads were demultiplexed by per-sample barcodes, and the Divisive Amplicon Denoising Algorithm (DADA2) was used to correct the Illumina-sequenced amplicon read errors. […] The alpha and β diversity were calculated from samples containing at least 9.800 sequences. The alpha diversity parameter, a measure of the richness of the bacterial community, was calculated using the Shannon Index, and the beta diversity was assessed by a Jaccard similarity distance matrix. […]
# The values in this paper were expressed as means and standard errors of the means (SEM). […] The results were analyzed by Analysis of Variance (ANOVA). […]
smiles,measurement,setting,value
"Oc1ccc(C=Cc2cc(O)cc(O)c2)cc1 [5% Resveratrol, Resveratrol]","β diversity of the cecal microbiome (Jaccard distances), comparison between groups","n=5, 5% inulin vs all other experimental groups (p<0.01), 5% pterostilbene vs 18 MΩ H2O control (p<0.05), stilbene groups among each other",strong clustering
same,Most differentially enriched taxa (LEfSe) vs no injection control,"compared with the no injection control group, p<0.05 (FIGS. 5A-5B)",Enterobacteriales order and Enterobacteriaceae family
